Consider one molecule from patent US5380761A, “Transdermal compositions” (Chinoin Gyogyszer- ES Vegyeszeti Termekek Gyara RT., priority 1991, dated 1995).

SMILES strings stand for the structures.

In the experiment the test system is MAO-A. Put plainly: MAO-A inhibition in domestic pig brain nucleus free homogenate (14C-5-HT substrate). As to conditions: p. os 10 mg, 96 h. It counts as in vivo.

Procedure: In further experiments we determined in domestic pigs The MAO activity in the brain and the platelet MAO-B activity.
The experiments were carried out on female (big white) domestic pigs, weighing 25-30 kg. The pigs were caged separately during the experiments, and the same food was supplied, which was used formerly.
Blood samples were taken for the determination of MAO-B activity at: 0, 3, 6, 24, 48, 72 and 96 h. At 96 h after blood sampling the pigs were killed and the MAO-B and MAO-A activity was determined in their dissected brain.
The times of blood sampling were at: 0, 3, 6, 24 and 48 h. The transdermal preparations were removed at 24 h. […] The pigs were killed at 48 h and MAO-A and MAO-B activity of the brain was determined.
Blood samples were taken at: 0, 3, 6, 24, 48 and 72 h. The patches were removed at 48 h and the whole procedure described at group 2 was accomplished.
MAO activity was measured radiometrically according to the methods of Wurtman and Axelrod (Biochem. Pharmacol. 12. 1414-19; 1963) with a slight modification (K. Magyar in: Monoamine Oxidases and their Selective Inhibition. Ed.: K. Magyar, Pergamon Press, Akademiai Kiado, Budapest 11-21; 1980).

`C#CCN(C)[C@H](C)Cc1ccccc1` [(-)-Deprenyl]: the “inhibition of MAO-activity (%) as compared to the control, brain, 14C-5-HT” value was found to be 20.14 ± 6.0%.
